Read-outs that look alike come from different tables or passages of the source.
Columns and labels:
[1] = test system: Key Broadleaf Weed and Crop Species; assay: Post-emergent Test II herbicidal activity (Table 5); format: in vivo; conditions: post-emergence, 336 h, 14 days after application; for pest or weed control at 70 g/ha: application rate 70 g ai/ha; for pest or weed control at 140 g/ha: application rate 140 g ai/ha
Procedure, shortened: (§1)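 Greenhouse-grown plants at first or second true leaf stage were sprayed post-emergence with compound in acetone/DMSO-based aqueous spray containing crop oil concentrate and surfactant, at 187 L/ha, highest rate plus ½× to 1/16× dilutions. After 14 d, injury was scored visually versus untreated plants, 0 (none) to 100% (complete kill).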

[2] = test system: Key Grass and Sedge Weeds as well as Grass Crops; assay: Post-emergent Test II herbicidal activity (Table 6); format: in vivo; conditions: post-emergence, 336 h; for pest or weed control at 70 g/ha: 70 g ai/ha; for pest or weed control at 140 g/ha: 140 g ai/ha
Procedure, shortened: as §1

[3] = ABUTH: velvetleaf (Abutilon theophrasti), read-out: Visual Growth Reduction (%) 14 Days After Application, ABUTH
[4] = AMARE: redroot pigweed (Amaranthus retroflexus), read-out: Visual Growth Reduction (%) 14 Days After Application, AMARE
[5] = BRSNN: oilseed-rape, canola (Brassica napus), read-out: Visual Growth Reduction (%) 14 Days After Application, BRSNN
[6] = CHEAL: lambsquarters (Chenopodium album), read-out: Visual Growth Reduction (%) 14 Days After Application, CHEAL
[7] = EPHHL: wild poinsettia (Euphorbia heterophylla), read-out: Visual Growth Reduction (%) 14 Days After Application, EPHHL
[8] = HELAN: sunflower (Helianthus annuus), read-out: Visual Growth Reduction (%) 14 Days After Application, HELAN
[9] = VIOTR: wild pansy (Viola tricolor), read-out: Visual Growth Reduction (%) 14 Days After Application, VIOTR
[10] = CYPES: yellow nutsedge (Cyperus esculentus), read-out: Visual Growth Reduction (%) 14 Days After Application, CYPES
[11] = DIGSA: crabgrass (Digitaria sanguinalis), read-out: Visual Growth Reduction (%) 14 Days After Application, DIGSA
[12] = ECHCG: barnyardgrass (Echinochloa crus-galli), read-out: Visual Growth Reduction (%) 14 Days After Application, ECHCG
[13] = ORYSA: rice (Oryza sativa), crop, read-out: Visual Growth Reduction (%) 14 Days After Application, ORYSA
[14] = SETFA: giant foxtail (Setaria faberi), read-out: Visual Growth Reduction (%) 14 Days After Application, SETFA
[15] = SORVU: grain sorghum (Sorghum vulgare), read-out: Visual Growth Reduction (%) 14 Days After Application, SORVU
[16] = TRZSS (wheat, Triticum aestivum), crop, read-out: Visual Growth Reduction (%) 14 Days After Application, TRZSS
[17] = ZEAMX: maize, corn (Zea mays), crop, read-out: Visual Growth Reduction (%) 14 Days After Application, ZEAMX

With `COC(=O)c1nc(-c2ccc([N+](=O)[O-])cc2)c(F)c(N)c1Cl` [Compound 95, methyl 4-amino-3-chloro-5-fluoro-6-(4-nitrophenyl)picolinate] the pest or weed control at 70 g/ha [1, 3] was 60 to 74%, the pest or weed control at 140 g/ha [1, 3] was 75 to 84% and the pest or weed control at 70 g/ha [1, 4] was 95 to 100%. The pest or weed control at 140 g/ha [1, 4] was 95 to 100%, the pest or weed control at 70 g/ha [1, 5] was 0 to 29% and the pest or weed control at 140 g/ha [1, 5] was 30 to 44%. It also gave a pest or weed control at 70 g/ha [1, 6] of 95 to 100%, a pest or weed control at 140 g/ha [1, 6] of 95 to 100% and a pest or weed control at 70 g/ha [1, 7] of 95 to 100%. The pest or weed control at 140 g/ha [1, 7] was 95 to 100%, the pest or weed control at 70 g/ha [1, 8] was 95 to 100% and the pest or weed control at 140 g/ha [1, 8] was 95 to 100%. It also gave a pest or weed control at 70 g/ha [1, 9] of 0 to 29%, a pest or weed control at 140 g/ha [1, 9] of 0 to 29% and a pest or weed control at 70 g/ha [2, 10] of 45 to 59%. The pest or weed control at 140 g/ha [2, 10] was 75 to 84%, the pest or weed control at 70 g/ha [2, 11] was 0 to 29% and the pest or weed control at 140 g/ha [2, 11] was 0 to 29%. It also gave a pest or weed control at 70 g/ha [2, 12] of 85 to 94%, a pest or weed control at 140 g/ha [2, 12] of 95 to 100% and a pest or weed control at 70 g/ha [2, 13] of 0 to 29%. It also gave a pest or weed control at 140 g/ha [2, 13] of 0 to 29%, a pest or weed control at 70 g/ha [2, 14] of 0 to 29% and a pest or weed control at 140 g/ha [2, 14] of 0 to 29%. The pest or weed control at 70 g/ha [2, 15] was 60 to 74%, the pest or weed control at 140 g/ha [2, 15] was 60 to 74% and the pest or weed control at 70 g/ha [2, 16] was 0 to 29%. The pest or weed control at 140 g/ha [2, 16] was 0 to 29%, the pest or weed control at 70 g/ha [2, 17] was 0 to 29% and the pest or weed control at 140 g/ha [2, 17] was 0 to 29%.

Work on `COC(=O)c1nc(-c2ccc(Br)cc2)nc(N)c1OC` [Compound 97] yielded a pest or weed control at 70 g/ha [1, 3] of 85 to 94%, a pest or weed control at 140 g/ha [1, 3] of 95 to 100% and a pest or weed control at 70 g/ha [1, 4] of 95 to 100%. It also gave a pest or weed control at 140 g/ha [1, 4] of 95 to 100%, a pest or weed control at 70 g/ha [1, 5] of 85 to 94% and a pest or weed control at 140 g/ha [1, 5] of 95 to 100%. For the same compound, the pest or weed control at 70 g/ha [1, 6] was 85 to 94%, the pest or weed control at 140 g/ha [1, 6] was 95 to 100% and the pest or weed control at 70 g/ha [1, 7] was 95 to 100%. It also gave a pest or weed control at 140 g/ha [1, 7] of 95 to 100%, a pest or weed control at 70 g/ha [1, 8] of 75 to 84% and a pest or weed control at 140 g/ha [1, 8] of 95 to 100%. The pest or weed control at 70 g/ha [1, 9] was 60 to 74%, the pest or weed control at 140 g/ha [1, 9] was 95 to 100% and the pest or weed control at 70 g/ha [2, 10] was 95 to 100%. It also gave a pest or weed control at 140 g/ha [2, 10] of 95 to 100%, a pest or weed control at 70 g/ha [2, 11] of 45 to 59% and a pest or weed control at 140 g/ha [2, 11] of 45 to 59%. For the same compound, the pest or weed control at 70 g/ha [2, 12] was 0 to 29%, the pest or weed control at 140 g/ha [2, 12] was 60 to 74% and the pest or weed control at 70 g/ha [2, 13] was 0 to 29%. It also gave a pest or weed control at 140 g/ha [2, 13] of 0 to 29%, a pest or weed control at 70 g/ha [2, 14] of 0 to 29% and a pest or weed control at 140 g/ha [2, 14] of 30 to 44%. It also gave a pest or weed control at 70 g/ha [2, 15] of 0 to 29%, a pest or weed control at 140 g/ha [2, 15] of 30 to 44% and a pest or weed control at 70 g/ha [2, 16] of 30 to 44%. The pest or weed control at 140 g/ha [2, 16] was 60 to 74%, the pest or weed control at 70 g/ha [2, 17] was 95 to 100% and the pest or weed control at 140 g/ha [2, 17] was 95 to 100%.

From US9113629B2, “4-amino-6-(4-substituted-phenyl)-picolinates and 6-amino-2-(4-substituted-phenyl)-pyrimidine-4-carboxylates and their use as herbicides” (DOW AGROSCIENCES LLC, priority 2013, dated 2015)
